In patent publication US8889112B2, “Ophthalmic formulations including selective alpha 1 antagonists” (Ocularis Pharma, LLC, priority 1999, dated 2014):
“And” between values parts separate entries of the source, which are not always exact repeats. Identical values can stand only once. Counter-ions that a name gives are not always drawn. Like-named read-outs stand apart in the source and are kept apart here.

What was measured:
[1] = system: human eye; assay: Effect of alpha adrenergic receptor antagonists on pupil dilation (Table 1, patients); type: in vivo; details: for Effect on pupil diam. in darkness (mm): pupil diameter after drug, from 7.5 mm before, topical, 5 mg/ml (phentolamine 3.3 mg/ml via soft contact lens for 30 minutes)
Excerpt: However, only the imidazolines obtain the desired reduction in dilation without causing excessive redness of the eye. In addition, the present invention in an embodiment provides a sub-class of alpha antagonists that can act as a sole active component in an ophthalmic medication to effectively reduce pupil light reflex while providing minimal, if any, redness response upon application thereof to the eye. In an embodiment, the sub-class of alpha antagonists includes alpha 1 selective antagonists, including alpha 1a selective antagonists, such as tamsulosin.

[2] = system: human eye; details: for Effectiveness in reducing pupil dilation in dim light: topical, phenoxybenzamine, prazosin, tolamine 0.1% to 5%, labetalol S,S and S,R isomers 0.1% to 2%; for Duration of effect: single administration per day, eye drop or drop on soft contact lens
Method: A preferred concentration of about 1 to about 5 milligrams of active agent per cc of total formulation volume in an embodiment may be administered by placing a single drop on a moist soft contact lens, and inserting the lens for about 15 minutes to about 45 minutes at one time per day. […] The drop may be administered in a one to five milligram per cc concentration directly to the eye as a recommended daily or BID dosing according to an embodiment of the present invention.
A 5 mg/ml vial of phentolamine was diluted in an artificial tear formulation to approximately 6.0 cc of solution.
Labetalol, a potent beta adrenergic receptor antagonist, consists of four isomers, two of which have some alpha 1 antagonist activity.

[3] = system: human eye; details: cited from earlier work
[4] = system: human eye; assay: Effect of phentolamine 0.35% on pupil diameter in dim and bright light (Table 2); type: in vivo
[5] = system: human eye; assay: Effect of phentolamine eye drops on visual acuity in dim light (Table 3); type: in vivo; details: one line per subject
Excerpt: The results illustrate the benefit that is derived from reducing pupil diameter by 1 mm or more and/or pupil area by 20% or more in dim light conditions pursuant to an embodiment. In this regard, a significant increase in spherical aberrations is typically found per each one millimeter of increase in pupil size diameter above 5 mm. These aberrations generally increase as a function of severity of the refractive error, particularly increases in the myopic spherical equivalent of refractive error. Coma may increase, as well as other higher order aberrations, as pupil size diameter increases, again especially as refractive error increases. Thus, a reduction in pupil diameter by 1 mm or more and/or pupil area by 20% or more can effectively act to improve vision in dim light conditions. As previously discussed, the present invention contemplates the use of a single active agent, preferably an alpha 1a selective antagonist, that can optimize pupil light reflex while minimizing, if not eliminating, redness. [table]

[6] = duration of effect on pupil, 5 mg/ml (phentolamine 3.3 mg/ml via soft contact lens)
[7] = pupil diameter after 3.3 mg/cc, single drop on soft contact lens placed for 30 minutes, one line per subject
[8] = pupil diameter before drug (baseline), one line per subject

Cc1ccccc1N1CCN(CCc2nnc3n2CCCC3)CC1 [Dapiprazole, 5,6,7,8 tetrahydro-3-[2-(4-o,tolyl-1-piperazinyl)ethyl]-8-triazolo[4,3-a]pyridine hydrochloride]
Duration [1, 6]: 5 to 12 h | Effect on pupil diam. in darkness (mm) [1]: 7.5 -> 7 mm | Redness / vasodilation of the eye ([2]; in vivo): unacceptably high levels of eye redness with severe blood vessel dilation | Effectiveness in reducing pupil dilation in dim light [2]: minimal if any clinically significant effect | Redness and chemosis upon instillation ([3]; 0.5% solution): substantial increased redness and conjunctival chemosis | Effectiveness in reducing pupil size in dim light ([3]; topical, compared to phentolamine and phenoxybenzamine, U.S. Pat. No. 6,515,006): not as effective

COc1cc2nc(N3CCN(C(=O)c4ccco4)CC3)nc(N)c2cc1OC [Prazosin]
Duration [1, 6]: 5 to 12 h | Effect on pupil diam. in darkness (mm) [1]: 7.5 -> 6 mm

Tolamine
Duration [1, 6]: 5 to 12 h | Effect on pupil diam. in darkness (mm) [1]: 7.5 -> 6 mm | Effectiveness in reducing pupil dilation in dim light [2]: slight pupillary reduction in dilation in dim light but appears to be less effective than phentolamine

CC[C@@H]1C(=O)OC[C@@H]1Cc1cncn1C [pilocarpine]
Duration of miotic effect ([3]; in vivo): only a few hours | Side effects ([3]; in vivo): brow ache, ciliary muscle contraction and pseudo myopia, excessive dimness when first applied | Pupil size when first applied ([3]; usually): less than 2 mm

CC(CCc1ccccc1)NCC(O)c1ccc(O)c(C(N)=O)c1 (stereo not drawn) [Labetalol]
Effectiveness in reducing pupil dilation in dim light [2]: modestly effective

Cc1ccc(N(CC2=NCCN2)c2cccc(O)c2)cc1 [Phentolamine]
Duration [1, 6]: 20 to 40 h | Effect on pupil diam. in darkness (mm) [1]: 7.5 -> 4.0 mm | Bright Light Post mm [4, 7]: 3.0 mm (2×) and 2.5 mm (3×) | Dim Light Post mm [4, 7]: 4.0 mm (3×) and 3.0 mm and 3.5 mm | Bright Light Pre mm [4, 8]: 4.0 mm and 3.0 mm (3×) and 3.5 mm | Dim Light Pre mm [4, 8]: 7.5 mm (2×) and 3.5 mm and 4.0 mm and 7.0 mm | halos reduced ([4]; subject, post drug): 70% reduced; depth | Pupil Diameter in Dim Light Post-Drug mm ([5]; after phentolamine eye drops): 6.9 mm (2×) and 7.1 mm (2×) and 5.9 mm (2×) and 7.5 mm and 6.5 mm and 7.4 mm | Pupil Diameter in Dim Light Pre-Drug mm ([5]; before drug (baseline)): 7.7 mm and 8.5 mm and 7.9 mm (3×) and 7.8 mm (2×) and 8.2 mm (2×) | Pupil Diameter Change mm ([5]; reduction in dim light, pre minus post): 0.8 mm (2×) and 1.4 mm (2×) and 2.0 mm and 0.9 mm and 0.4 mm and 1.1 mm and 1.9 mm | Pupil Area Change % ([5]; reduction of pupil area in dim light): 20% and 30% and 44% and 22% and 10% and 25% and 32% and 19% and 43% | Dim Light Contrast Post-Drug ([5]; visual acuity after phentolamine eye drops): 20/25 and 20/22 and 20/20 and 20/24 and 20/38 and 20/21 (2×) and 20/32 and 20/50 | Dim Light Contrast Pre-Drug ([5]; visual acuity before drug (baseline)): 20/29 (2×) and 20/35 and 20/32 (2×) and 20/63 and 20/38 and 20/40 and 20/53 | Redness / vasodilation of the eye ([2]; in vivo): very slight, transient redness | Duration of effect [2]: 20 to 24 h | Duration of effect ([2]; listed as phentolamine): 20 to 24 h

CC(COc1ccccc1)N(CCCl)Cc1ccccc1 (stereo not drawn) [Phenoxybenzamine]
Duration (hrs) [1, 6]: ≧20 hrs | Effect on pupil diam. in darkness (mm) [1]: 7.5 -> 5.5 mm | Redness / vasodilation of the eye ([2]; topical application as only active compound): induce much more vasodilation and congestion | Redness / vasodilation of the eye ([2]; topical application as only active compound, listed as phenoxybenzamine): unacceptably high level of redness | Effectiveness in reducing pupil dilation in dim light [2]: have not been as effective as phentolamine
